According to ChEMBL document CHEMBL5247609, “Novel nitric oxide-releasing derivatives of pyranocarbazole as antitumor agents: Design, synthesis, biological evaluation, and nitric oxide release studies” (Eur J Med Chem, 2022):
pIC50: −log10 of the molar value. The source made the active and inactive calls. No cut-off for these calls is given here.

Experiments:
MDA-MB-231 [1] = test: Antiproliferative activity against human MDA-MB-231 cells assessed as reduction in cell viability by measuring release of nitrite at 100 uM after 180 mins by Griess reagent analysis; format: functional; details: 3 h
NCI-H460 = test: Antiproliferative activity against human H460 cells assessed as reduction in cell viability after 96 hrs by MTT assay; format: functional, cell-based; details: NCI-H460, 96 h
HeLa = test: Antiproliferative activity against human HeLa cells assessed as reduction in cell viability after 96 hrs by MTT assay; format: functional, cell-based
MDA-MB-231 [2] = test: Antiproliferative activity against human MDA-MB-231 cells assessed as reduction in cell viability after 96 hrs by MTT assay; format: functional, cell-based; details: MDA-MB-231, 96 h
MX1 [3] = test: Induction of morphological changes in human MX1 cells at 5 uM measured after 24 hrs by bright field inverted microscopic analysis; format: functional, cell-based
MDA-MB-231 [4] = test: Induction of morphological changes in human MDA-MB-231 cells at 5 uM measured after 24 hrs by bright field inverted microscopic analysis; format: functional, cell-based
MX1 [5] = test: Induction of morphological changes in human MX1 cells assessed as decrease in cell number at 5 uM measured after 24 hrs by bright field inverted microscopic analysis; format: functional, cell-based
MDA-MB-231 [6] = test: Induction of morphological changes in human MDA-MB-231 cells assessed as decrease in cell number at 5 uM measured after 24 hrs by bright field inverted microscopic analysis; format: functional, cell-based
MX1 [7] = test: Induction of morphological changes in human MX1 cells assessed as decrease in cell size at 5 uM measured after 24 hrs by bright field inverted microscopic analysis; format: functional, cell-based
MDA-MB-231 [8] = test: Induction of morphological changes in human MDA-MB-231 cells assessed as decrease in cell size at 5 uM measured after 24 hrs by bright field inverted microscopic analysis; format: functional, cell-based
MDA-MB-231 [9] = test: Antiproliferative activity against human MDA-MB-231 cells assessed as decrease in number of colony formation at 5 uM measured after 14 days by crystal violet staining based analysis; format: functional, cell-based; details: time 14.0 day
MX1 [10] = test: Induction of apoptosis in human MX1 cells assessed as viable cells measured at 5 uM after 48 hrs by FITC-Annexin-V and propidium iodide based flow cytometric analysis (reference value: 88.4%); format: functional; details: read-out: Activity
MX1 [11] = test: Induction of apoptosis in human MX1 cells assessed as early apoptotic cells measured at 5 uM after 48 hrs by FITC-Annexin-V and propidium iodide based flow cytometric analysis (reference value: 6.30%); format: functional
MX1 [12] = test: Induction of apoptosis in human MX1 cells assessed as late apoptotic cells measured at 5 uM after 48 hrs by FITC-Annexin-V and propidium iodide based flow cytometric analysis (reference value: 5.24%); format: functional
MX1 [13] = test: Induction of apoptosis in human MX1 cells assessed as necrotic cells measured at 5 uM after 48 hrs by FITC-Annexin-V and propidium iodide based flow cytometric analysis (reference value: 0.055 %); format: functional
MDA-MB-231 [14] = test: Induction of apoptosis in human MDA-MB-231 cells assessed as viable cells measured at 5 uM after 48 hrs by FITC-Annexin-V and propidium iodide based flow cytometric analysis (reference value: 94.4% ); format: functional; details: read-out: Activity
MDA-MB-231 [15] = test: Induction of apoptosis in human MDA-MB-231 cells assessed as early apoptotic cells measured at 5 uM after 48 hrs by FITC-Annexin-V and propidium iodide based flow cytometric analysis (reference value: 2.71%); format: functional
MDA-MB-231 [16] = test: Induction of apoptosis in human MDA-MB-231 cells assessed as late apoptotic cells measured at 5 uM after 48 hrs by FITC-Annexin-V and propidium iodide based flow cytometric analysis (reference value: 2.68%); format: functional
MDA-MB-231 [17] = test: Induction of apoptosis in human MDA-MB-231 cells assessed as necrotic cells measured at 5 uM after 48 hrs by FITC-Annexin-V and propidium iodide based flow cytometric analysis (reference value: 0.253 %); format: functional

Structure (SMILES): CC1(C)C=Cc2c(c(CNCCOc3no[n+]([O-])c3S(=O)(=O)c3ccccc3)cc3c2[nH]c2ccc(C(C)(C)C)cc23)O1
- Nitrite release (MDA-MB-231 [1]): 19.7 µM
- pIC50 (NCI-H460): 5.22
- pIC50 (HeLa): 5.27
- pIC50 (MDA-MB-231 [2]): 5.37

Structure (SMILES): CC1(C)C=Cc2c(c(/C=C/C(=O)NCCCOc3no[n+]([O-])c3S(=O)(=O)c3ccccc3)cc3c2[nH]c2ccc(C(C)(C)C)cc23)O1
- Nitrite release (MDA-MB-231 [1]): 19.7 µM
- pIC50 (NCI-H460): 5.89
- pIC50 (HeLa): 6.64
- pIC50 (MDA-MB-231 [2]): 6.74

Structure (SMILES): CC1(C)C=Cc2c(c(/C=C/C(=O)N3CCC(CCOc4no[n+]([O-])c4S(=O)(=O)c4ccccc4)CC3)cc3c2[nH]c2ccc(C(C)(C)C)cc23)O1
- Nitrite release (MDA-MB-231 [1]): 19.7 µM
- pIC50 (NCI-H460): 5.50
- pIC50 (HeLa): 6.62
- pIC50 (MDA-MB-231 [2]): 6.68

Structure (SMILES): CC1(C)C=Cc2c(c(CN3CCC(Oc4no[n+]([O-])c4S(=O)(=O)c4ccccc4)CC3)cc3c2[nH]c2ccc(C(C)(C)C)cc23)O1
- Nitrite release (MDA-MB-231 [1]): 19.7 µM
- pIC50 (NCI-H460): 5.86
- pIC50 (HeLa): 5.79
- pIC50 (MDA-MB-231 [2]): 5.45

Structure (SMILES): CC(=O)O[C@H]1C(=O)[C@@]2(C)[C@H]([C@H](OC(=O)c3ccccc3)[C@]3(O)C[C@H](OC(=O)[C@H](O)[C@@H](NC(=O)c4ccccc4)c4ccccc4)C(C)=C1C3(C)C)[C@]1(OC(C)=O)CO[C@@H]1C[C@@H]2O [PACLITAXEL]
- Nitrite release (MDA-MB-231 [1]): 19.7 µM
- pIC50 (HeLa): 8.22
- pIC50 (MDA-MB-231 [2]): 7.30

Structure (SMILES): CN1CCN(Cc2cc3c([nH]c4ccc(C(C)(C)C)cc43)c3c2OC(C)(C)C=C3)CC1
- pIC50 (NCI-H460): 5.44
- pIC50 (HeLa): 5.89
- pIC50 (MDA-MB-231 [2]): 5.46
- Activity (MX1 [3]): Active
- Activity (MDA-MB-231 [4]): Active
- Activity (MX1 [5]): Active
- Activity (MDA-MB-231 [6]): Active
- Activity (MX1 [7]): Active
- Activity (MDA-MB-231 [8]): Active
- Activity (MDA-MB-231 [9]): Active
- viability at 5 µM (MX1 [10]): 36%
- Activity (MX1 [11]): 53.8%
- Activity (MX1 [12]): 9.97%
- Activity (MX1 [13]): 0.175%
- viability at 5 µM (MDA-MB-231 [14]): 81.3%
- Activity (MDA-MB-231 [15]): 10.2%
- Activity (MDA-MB-231 [16]): 7.79%
- Activity (MDA-MB-231 [17]): 0.745%

Structure (SMILES): NCCOc1no[n+]([O-])c1S(=O)(=O)c1ccccc1
- pIC50 (NCI-H460): 4.79
- pIC50 (HeLa): 4.98
- pIC50 (MDA-MB-231 [2]): 4.90

Structure (SMILES): CC1(C)C=Cc2c(c(/C=C/C(=O)N3CCC(Oc4no[n+]([O-])c4S(=O)(=O)c4ccccc4)CC3)cc3c2[nH]c2ccc(C(C)(C)C)cc23)O1
- pIC50 (NCI-H460): 5.57
- pIC50 (HeLa): 5.87
- pIC50 (MDA-MB-231 [2]): 5.45

Structure (SMILES): CC1(C)C=Cc2c(c(/C=C/C(=O)N3CCCC3COc3no[n+]([O-])c3S(=O)(=O)c3ccccc3)cc3c2[nH]c2ccc(C(C)(C)C)cc23)O1 (stereo not given)
- Nitrite release (MDA-MB-231 [1]): 19.7 µM
- pIC50 (NCI-H460): 5.22
- pIC50 (HeLa): 6.62
- pIC50 (MDA-MB-231 [2]): 6.42

Structure (SMILES): CC1(C)C=Cc2c(c(CN3CCC(CCOc4no[n+]([O-])c4S(=O)(=O)c4ccccc4)CC3)cc3c2[nH]c2ccc(C(C)(C)C)cc23)O1
- Nitrite release (MDA-MB-231 [1]): 19.7 µM
- pIC50 (NCI-H460): 5.71
- pIC50 (HeLa): 5.74
- pIC50 (MDA-MB-231 [2]): 5.46

Structure (SMILES): CC1(C)C=Cc2c(c(CNCCCOc3no[n+]([O-])c3S(=O)(=O)c3ccccc3)cc3c2[nH]c2ccc(C(C)(C)C)cc23)O1
- Nitrite release (MDA-MB-231 [1]): 19.7 µM
- pIC50 (NCI-H460): 5.13
- pIC50 (HeLa): 5.12
- pIC50 (MDA-MB-231 [2]): 5.23

Structure (SMILES): CC1(C)C=Cc2c(c(/C=C/C(=O)N3CCC(COc4no[n+]([O-])c4S(=O)(=O)c4ccccc4)CC3)cc3c2[nH]c2ccc(C(C)(C)C)cc23)O1
- Nitrite release (MDA-MB-231 [1]): 19.7 µM
- pIC50 (NCI-H460): 5.87
- pIC50 (HeLa): 6.37
- pIC50 (MDA-MB-231 [2]): 6.54

Structure (SMILES): CC(CNC(=O)/C=C/c1cc2c([nH]c3ccc(C(C)(C)C)cc32)c2c1OC(C)(C)C=C2)Oc1no[n+]([O-])c1S(=O)(=O)c1ccccc1 (stereo not given)
- pIC50 (NCI-H460): 6.00
- pIC50 (HeLa): 6.68
- pIC50 (MDA-MB-231 [2]): 6.70

Structure (SMILES): CC1(C)C=Cc2c(c(CN3CCC(COc4no[n+]([O-])c4S(=O)(=O)c4ccccc4)CC3)cc3c2[nH]c2ccc(C(C)(C)C)cc23)O1
- pIC50 (NCI-H460): 5.35
- pIC50 (HeLa): 5.41
- pIC50 (MDA-MB-231 [2]): 5.43
